Data taken from paper PMC12377202, “Design, synthesis, and cytotoxic evaluation of quinazoline-based derivatives as VEGER-2 inhibitors: comparative study against EGFR kinase activity, induction of apoptosis, and molecular docking study” (RSC Advances, 2025).

Key:
[1] = tested on: MCF-7; assay: MTT anti-proliferative assay, MCF-7; type: cell-based, human
[2] = tested on: HepG-2; assay: MTT anti-proliferative assay, HepG-2; type: cell-based, human
[3] = tested on: K-562; assay: MTT anti-proliferative assay, K-562; type: cell-based, human
[4] = tested on: caspase-3; assay: Caspase-3 expression level in HepG-2 cells; type: cell-based, human; conditions: for Caspase-3 ± SE: HepG-2, at IC50 concentrations, control 0.460
Description: (§1) All synthesized compounds were tested at their cytotoxic concentrations in HepG-2 cells for analysis of gene expression levels of apoptotic markers caspase-3, caspase-9, TNF-α, and IL-6 proteins, and only two active compounds were tested for BAX and Bcl-2 proteins.
(§2) through Flow cytometric analysis.
(§3) Pellets were collected again and incubated with
(§4) Total RNA from vehicle-treated
(§5) (Thermo Scientific, USA).
(§6) All experiments were performed in […]

[5] = tested on: caspase-9; assay: Caspase-9 expression level in HepG-2 cells; type: cell-based, human; conditions: for Caspase-9 ± SE: HepG-2, at IC50 concentrations, control 11.01
Description: as §1, §2, §3, §4, §5, §6

[6] = tested on: TNF-alpha; assay: TNF-alpha level in HepG-2 cells; type: cell-based, human; conditions: for TNF-alpha ±SE: control 43.48
Description: as §1, §2, §3, §4, §5, §6

[7] = tested on: IL-6R; assay: IL-6R level in HepG-2 cells; type: cell-based, human
Description: as §1, §2, §3, §4, §5, §6

[8] = target: EGFR (Homo sapiens, UniProt P00533); assay: EGFR kinase inhibition assay (ELISA kit)
[9] = target: VEGFR-2 (Homo sapiens, UniProt P35968); assay: In vitro VEGFR-2 inhibitory assay (ELISA kit); conditions: VEGFR-2 kinase
Sequence of VEGFR-2 (P35968 20-1356): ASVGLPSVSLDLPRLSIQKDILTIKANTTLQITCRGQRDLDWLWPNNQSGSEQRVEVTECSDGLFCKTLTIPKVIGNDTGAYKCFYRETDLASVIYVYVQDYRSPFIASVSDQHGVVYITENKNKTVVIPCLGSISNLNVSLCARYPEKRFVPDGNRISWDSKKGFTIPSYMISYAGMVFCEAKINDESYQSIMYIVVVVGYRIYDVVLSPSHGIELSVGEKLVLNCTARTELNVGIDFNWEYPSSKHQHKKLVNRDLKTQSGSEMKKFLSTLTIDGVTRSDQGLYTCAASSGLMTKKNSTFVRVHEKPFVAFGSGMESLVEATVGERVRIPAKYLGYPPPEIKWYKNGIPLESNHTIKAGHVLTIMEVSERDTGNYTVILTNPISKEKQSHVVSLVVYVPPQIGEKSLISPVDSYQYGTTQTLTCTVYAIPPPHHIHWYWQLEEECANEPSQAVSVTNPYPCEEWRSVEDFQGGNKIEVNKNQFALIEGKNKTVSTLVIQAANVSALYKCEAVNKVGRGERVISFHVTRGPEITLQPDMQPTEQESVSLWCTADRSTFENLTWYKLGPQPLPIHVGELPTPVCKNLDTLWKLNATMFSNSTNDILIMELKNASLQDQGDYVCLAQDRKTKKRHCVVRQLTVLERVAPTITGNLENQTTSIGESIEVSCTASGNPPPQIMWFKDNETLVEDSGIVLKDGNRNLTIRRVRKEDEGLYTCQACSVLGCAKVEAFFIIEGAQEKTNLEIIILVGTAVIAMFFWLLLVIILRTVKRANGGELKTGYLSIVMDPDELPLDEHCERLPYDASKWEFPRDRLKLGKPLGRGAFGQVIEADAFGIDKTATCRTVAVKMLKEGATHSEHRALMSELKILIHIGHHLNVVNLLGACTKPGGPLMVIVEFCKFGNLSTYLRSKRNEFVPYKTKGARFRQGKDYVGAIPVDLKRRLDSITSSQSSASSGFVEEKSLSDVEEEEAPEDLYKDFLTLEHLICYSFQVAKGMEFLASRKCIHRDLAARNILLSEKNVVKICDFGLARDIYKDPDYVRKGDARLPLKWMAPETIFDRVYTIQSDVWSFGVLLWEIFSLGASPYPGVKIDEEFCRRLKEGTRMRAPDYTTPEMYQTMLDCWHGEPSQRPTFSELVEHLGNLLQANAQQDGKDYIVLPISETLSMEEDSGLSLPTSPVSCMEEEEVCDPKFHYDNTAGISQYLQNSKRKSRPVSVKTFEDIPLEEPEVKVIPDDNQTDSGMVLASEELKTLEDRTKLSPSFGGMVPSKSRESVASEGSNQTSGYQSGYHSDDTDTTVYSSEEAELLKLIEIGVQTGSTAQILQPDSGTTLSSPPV

“N-(2,6-Dichlorophenyl)-2-(7-nitro-4-oxoquinazolin-3(4H)-yl)acetamide [9d]” showed a Toxicity % ([1]; MCF-7, 0.195 umol) of 49.43%, a Viability % ([1]; MCF-7, 0.195 umol) of 50.57% and a Toxicity % ([1]; MCF-7, 0.391 umol) of 61.52%. The Viability % ([1]; MCF-7, 0.391 umol) was 38.48%, the Toxicity % ([1]; MCF-7, 0.781 umol) was 74.05% and the Viability % ([1]; MCF-7, 0.781 umol) was 25.95%. For the same substance, the Toxicity % ([1]; MCF-7, 1.563 umol) was 65.74%, the Toxicity % ([1]; MCF-7, 3.125 umol) was 91.03% and the Viability % ([1]; MCF-7, 3.125 umol) was 8.971%. It also gave a Toxicity % ([1]; MCF-7, 6.25 umol) of 92.04%, a Viability % ([1]; MCF-7, 6.25 umol) of 7.96% and a Toxicity % ([1]; MCF-7, 12.5 umol) of 93.58%. For the same substance, the Viability % ([1]; MCF-7, 12.5 umol) was 6.42%, the Toxicity % ([1]; MCF-7, 25 umol) was 92.88% and the Viability % ([1]; MCF-7, 25 umol) was 7.124%. It also gave an IC50 ([1]; MTT, MCF-7, read-out: Cytotoxicity against cancer cells IC50 MCF-7) of 204 ± 2.6 nM, a Toxicity % ([2]; HepG-2, 0.195 ug/ml) of 39.23% and a Viability % ([2]; HepG-2, 0.195 ug/ml) of 60.77%. It also gave a Toxicity % ([2]; HepG-2, 0.391 ug/ml) of 55.68%, a Viability % ([2]; HepG-2, 0.391 ug/ml) of 44.32% and a Toxicity % ([2]; HepG-2, 0.781 ug/ml) of 70.62%. For the same substance, the Viability % ([2]; HepG-2, 0.781 ug/ml) was 29.38%, the Toxicity % ([2]; HepG-2, 1.563 ug/ml) was 85.02% and the Viability % ([2]; HepG-2, 1.563 ug/ml) was 14.98%. The Toxicity % ([2]; HepG-2, 3.125 ug/ml) was 89.27%, the Viability % ([2]; HepG-2, 3.125 ug/ml) was 10.73% and the Toxicity % ([2]; HepG-2, 6.25 ug/ml) was 91.87%. For the same substance, the Viability % ([2]; HepG-2, 6.25 ug/ml) was 8.132%, the Toxicity % ([2]; HepG-2, 12.5 ug/ml) was 93.19% and the Viability % ([2]; HepG-2, 12.5 ug/ml) was 6.813%. The Toxicity % ([2]; HepG-2, 25 ug/ml) was 93.7%, the Viability % ([2]; HepG-2, 25 ug/ml) was 6.3% and the IC50 ([2]; MTT, HepG-2, read-out: Cytotoxicity against cancer cells IC50 HepG-2) was 322.7 ± 2.9 nM. It also gave a Toxicity % ([3]; K-562, 0.195 umol) of 0.4516%, a Viability % ([3]; K-562, 0.195 umol) of 99.55% and a Toxicity % ([3]; K-562, 0.391 umol) of 4.146%. The Viability % ([3]; K-562, 0.391 umol) was 95.85%, the Toxicity % ([3]; K-562, 0.781 umol) was 28.41% and the Viability % ([3]; K-562, 0.781 umol) was 71.59%. The Toxicity % ([3]; K-562, 1.563 umol) was 39.82%, the Viability % ([3]; K-562, 1.563 umol) was 60.18% and the Toxicity % ([3]; K-562, 3.125 umol) was 62.19%. For the same substance, the Viability % ([3]; K-562, 3.125 umol) was 37.81%, the Toxicity % ([3]; K-562, 6.25 umol) was 87.81% and the Viability % ([3]; K-562, 6.25 umol) was 12.19%. The Toxicity % ([3]; K-562, 12.5 umol) was 90.52%, the Viability % ([3]; K-562, 12.5 umol) was 9.483% and the Toxicity % ([3]; K-562, 25 umol) was 92.57%. The Viability % ([3]; K-562, 25 umol) was 7.43%, the IC50 ([3]; MTT, K-562, read-out: Cytotoxicity against cancer cells IC50 K-562) was 2274 ± 3.5 nM and the “Caspase-3 ± SE” value [4] was 0.68 ± 0.013 ng/mL. For the same substance, the “Caspase-3 ± SE” value ([4]; listed as N3) was 0.68 ng/mL, the “caspase-3 expression level, fold increase” value ([4]; HepG-2, vs control cells) was 1.5 fold and the “Caspase-9 ± SE” value [5] was 43.52 ± 3.69 ng/L. For the same substance, the “Caspase-9 ± SE” value ([5]; listed as N3) was 43.52 ng/L, the “caspase-9 expression level, fold increase” value ([5]; HepG-2, vs control cells) was 3.95 fold and the “TNF-alpha ±SE” value ([6]; HepG-2, at IC50 concentrations) was 10.2 ± 1.53 ng/L. The TNF-α expression level ([6]; HepG-2, control 43.48%) was 10.2 ng/L, the “TNF-alpha ±SE” value ([6]; raw data, HepG2) was 16.01 ng/L and the “IL-6R ± SE” value ([7]; HepG-2, at IC50 concentrations, control 44.10) was 16.64 ± 0.83 ng/L. For the same substance, the IL-6R protein level ([7]; HepG-2, control 44.10%) was 16.64 ng/L, the “IL-6 ±SE” value ([7]; raw data, HepG2, control 44.10) was 10.13 ng/L and the Activity % ([8]; HepG2) was 18.428%. For the same substance, the Inhibition % ([8]; HepG2) was 81.572%, the Activity % ([8]; K-562) was 16.638% and the Inhibition % ([8]; K-562) was 83.362%. The Activity % ([8]; MCF7) was 30.226%, the Inhibition % ([8]; MCF7) was 69.774% and the Activity % ([9]; HepG2) was 19.818%. It also gave an Inhibition % ([9]; HepG2) of 80.182%, an Activity % ([9]; K-562) of 41.248% and an Inhibition % ([9]; K-562) of 58.752%. It also gave an Activity % ([9]; MCF7) of 52.958% and an Inhibition % ([9]; MCF7) of 47.042%.
